Patent US3968207A, “Method of controlling fleas and ticks on cats and dogs” (priority 1975, dated 1976)
Where “and” joins values, the source holds several entries; their conditions need not be identical. Equal values may be shown once.

Tests used:
[1] = tested on: Ctenocephalides felis; assay: 2% powder for control of flea infestations on dogs; type: in vivo; settings: Trial 1, individual dogs, 20 mg/kg
Protocol: An experiment was carried out to determine the activity of O,O,O',O'-tetramethyl O,O'-thiodi-p-phenylene phosphorothioate 2% powder for the control of Ctenocephalides felis infestations on dogs. A group of 40 dogs of mixed breeds were obtained from a licensed laboratory animal dealer and housed in individual cages. The 2% powder was formulated from a 25% dust concentrate containing […] O,O,O',O'-tetramethyl O,O'-thiodi-p-phenylene phosphorothioate, 24% celite 209 and 50% acidic kaolin. Talc was used to dilute the concentrate to 2% active ingredient. Each dog was infested with 100 1 day old adult C. felis 72 hours prior to treatment and reinfested on a weekly basis for 6 weeks beginning 7 days after treatment. Each dog was treated with 20 mg. actual drug per kg. body weight formulated as a 2% powder. Five or more dogs were treated with a blank powder and used as infested controls. Table XV summarizes average dead fleas in treated versus average dead fleas in control.

[2] = tested on: Ctenocephalides felis; assay: 2% pressurized spray for control of fleas on dogs; type: in vivo
Protocol: An experiment was carried out on dogs obtained from a licensed laboratory animal dealer. These dogs were mixed breeds and of different size and sex. The dogs were individually housed in cages with absorbent paper placed under each in order to count dead fleas. A mixture containing 2% O,O,O',O'-tetramethyl O,O'-thiodi-p-phenylene phosphorothioate (active ingredient) and having the following formula was used as a pressurized spray: […]
Two tests were carried out, one with 22 dogs and the other with 21 dogs, each test using 5 control dogs. Each dog was treated with approximately 60 mg./kg. of O,O,O',O'-tetramethyl O,O'-thiodi-p-phenylene phosphorothioate using the formulation described above. Each dog was infested with 100 1-day old adult C. felis 72 hours prior to spray treatment and reinfested on a weekly basis for 7 weeks, beginning 7 days after treatment. The five control dogs were treated with a blank spray containing everything except the active ingredient. After treatment or each reinfestation, daily examinations of each dog were made up to 7 days or until no live fleas could be found. Once a live flea was found, the dog was considered still infested even though the flea population may have been low. The number of dead fleas recovered from papers under the cages are expressed as average dead on treated/average dead on control are summarized in Table XVII.

For `COP(=S)(OC)Oc1ccc(Sc2ccc(OP(=S)(OC)OC)cc2)cc1` [O,O,O',O'-tetramethyl O,O'-thiodi-p-phenylene phosphorothioate], the “No. of Dead Fleas Recovered in 48 Hrs.” value ([1]; week 3) was 37 and 36 and 47 and 43 and 35 and 42 and 33 and 63 and 44 and 60 and 29, the “No. of Dead Fleas Recovered in 48 Hrs.” value ([1]; week 4) was 43 and 46 and 48 and 25 and 8 and 21 and 35 and 61 and 24 and 34 and 6 and 26 and 42 and the “No. of Dead Fleas Recovered in 48 Hrs.” value ([1]; week 5) was 35 and 63 and 48 and 16 and 5 and 21 and 11 and 36 and 14 and 46 and 39. The “No. of Dead Fleas Recovered in 48 Hrs.” value ([1]; week 6) was 5 and 49 and 63 and 10 and 3 and 1 and 23 and 19 and 6 and 7 and 27 and 35, the “Percent of Dogs with Control” value ([2]; 60 mg/kg 2% pressurized spray, week 0) was 100% and the “Percent of Dogs with Control” value ([2]; 60 mg/kg 2% pressurized spray, week 1) was 100%. The “Percent of Dogs with Control” value ([2]; 60 mg/kg 2% pressurized spray, week 2) was 100%, the “Percent of Dogs with Control” value ([2]; 60 mg/kg 2% pressurized spray, week 3) was 100% and the “Percent of Dogs with Control” value ([2]; 60 mg/kg 2% pressurized spray, week 4) was 97.6%. The “Percent of Dogs with Control” value ([2]; 60 mg/kg 2% pressurized spray, week 5) was 95.2%, the “Percent of Dogs with Control” value ([2]; 60 mg/kg 2% pressurized spray, week 6) was 82.9% and the “Percent of Dogs with Control” value ([2]; 60 mg/kg 2% pressurized spray, week 7) was 58.5%. The “Avg. Dead on Treated, Average on Two Tests” value (“Avg. Dead on Treated, Average” for short) ([2]; 60 mg/kg, week 0, control 2.0) was 36.3, the “Avg. Dead on Treated, Average” value ([2]; 60 mg/kg, week 1, control 5.6) was 41.4 and the “Avg. Dead on Treated, Average” value ([2]; 60 mg/kg, week 2, control 3.0) was 41.2. The “Avg. Dead on Treated, Average” value ([2]; 60 mg/kg, week 3, control 4.8) was 41.2, the “Avg. Dead on Treated, Average” value ([2]; 60 mg/kg, week 4, control 5.2) was 40.7 and the “Avg. Dead on Treated, Average” value ([2]; 60 mg/kg, week 5, control 5.6) was 36.0. The “Avg. Dead on Treated, Average” value ([2]; 60 mg/kg, week 6, control 4.8) was 30.0, the “Avg. Dead on Treated, Average” value ([2]; 60 mg/kg, week 7, control 4.8) was 26.3 and the “Number of Dogs on Which Fleas were Controlled” value (from here on “Number of Dogs”) ([2]; Combination of Test 1 & 2, 60 mg/kg, week 0, of 43) was 43 dogs. For the same compound, the “Number of Dogs” value ([2]; Combination of Test 1 & 2, 60 mg/kg, week 1, of 43) was 43 dogs, the “Number of Dogs” value ([2]; Combination of Test 1 & 2, 60 mg/kg, week 2, of 43) was 43 dogs and the “Number of Dogs” value ([2]; Combination of Test 1 & 2, 60 mg/kg, week 3, of 42) was 42 dogs. For the same compound, the “Number of Dogs” value ([2]; Combination of Test 1 & 2, 60 mg/kg, week 4, of 42) was 41 dogs, the “Number of Dogs” value ([2]; Combination of Test 1 & 2, 60 mg/kg, week 5, of 42) was 40 dogs and the “Number of Dogs” value ([2]; Combination of Test 1 & 2, 60 mg/kg, week 6, of 41) was 34 dogs. The “Number of Dogs” value ([2]; Combination of Test 1 & 2, 60 mg/kg, week 7, of 41) was 24 dogs, the “Number of Dogs” value ([2]; Experiment 1, 60 mg/kg 2% pressurized spray, week 0, of 22) was 22 dogs and the “Number of Dogs” value ([2]; Experiment 1, 60 mg/kg 2% pressurized spray, week 1, of 22) was 22 dogs. The “Number of Dogs” value ([2]; Experiment 1, 60 mg/kg 2% pressurized spray, week 2, of 22) was 22 dogs, the “Number of Dogs” value ([2]; Experiment 1, 60 mg/kg 2% pressurized spray, week 3, of 22) was 22 dogs and the “Number of Dogs” value ([2]; Experiment 1, 60 mg/kg 2% pressurized spray, week 4, of 22) was 22 dogs. For the same compound, the “Number of Dogs” value ([2]; Experiment 1, 60 mg/kg 2% pressurized spray, week 5, of 22) was 22 dogs, the “Number of Dogs” value ([2]; Experiment 1, 60 mg/kg 2% pressurized spray, week 6, of 22**) was 20 dogs and the “Number of Dogs” value ([2]; Experiment 1, 60 mg/kg 2% pressurized spray, week 7, of 21) was 12 dogs. For the same compound, the “Number of Dogs” value ([2]; Experiment 2, 60 mg/kg 2% pressurized spray, week 0, of 21) was 21 dogs, the “Number of Dogs” value ([2]; Experiment 2, 60 mg/kg 2% pressurized spray, week 1, of 21) was 21 dogs and the “Number of Dogs” value ([2]; Experiment 2, 60 mg/kg 2% pressurized spray, week 2, of 21) was 21 dogs. The “Number of Dogs” value ([2]; Experiment 2, 60 mg/kg 2% pressurized spray, week 3, of 20**) was 20 dogs, the “Number of Dogs” value ([2]; Experiment 2, 60 mg/kg 2% pressurized spray, week 4, of 20) was 19 dogs and the “Number of Dogs” value ([2]; Experiment 2, 60 mg/kg 2% pressurized spray, week 5, of 20) was 18 dogs. For the same compound, the “Number of Dogs” value ([2]; Experiment 2, 60 mg/kg 2% pressurized spray, week 6, of 20) was 14 dogs, the “Number of Dogs” value ([2]; Experiment 2, 60 mg/kg 2% pressurized spray, week 7, of 20) was 12 dogs and the “Avg. Dead on Treated” value ([2]; Test 1, 60 mg/kg, week 0, control 38) was 34.6. For the same compound, the “Avg. Dead on Treated” value ([2]; Test 1, 60 mg/kg, week 1, control 10.4) was 38.2, the “Avg. Dead on Treated” value ([2]; Test 1, 60 mg/kg, week 2, control 3.4) was 42.1 and the “Avg. Dead on Treated” value ([2]; Test 1, 60 mg/kg, week 3, control 4.6) was 41.6. The “Avg. Dead on Treated” value ([2]; Test 1, 60 mg/kg, week 4, control 5.4) was 37.8, the “Avg. Dead on Treated” value ([2]; Test 1, 60 mg/kg, week 5, control 5.0) was 34.1 and the “Avg. Dead on Treated” value ([2]; Test 1, 60 mg/kg, week 6, control 6.2) was 34.1. For the same compound, the “Avg. Dead on Treated” value ([2]; Test 1, 60 mg/kg, week 7, control 6.6) was 30.8, the “Avg. Dead on Treated” value ([2]; Test 2, 60 mg/kg, week 0, control .2) was 38.0 and the “Avg. Dead on Treated” value ([2]; Test 2, 60 mg/kg, week 1, control .8) was 44.5. The “Avg. Dead on Treated” value ([2]; Test 2, 60 mg/kg, week 2, control 2.6) was 40.3, the “Avg. Dead on Treated” value ([2]; Test 2, 60 mg/kg, week 3, control 5.0) was 40.7 and the “Avg. Dead on Treated” value ([2]; Test 2, 60 mg/kg, week 4, control 5.0) was 43.6. For the same compound, the “Avg. Dead on Treated” value ([2]; Test 2, 60 mg/kg, week 5, control 6.2) was 37.9, the “Avg. Dead on Treated” value ([2]; Test 2, 60 mg/kg, week 6, control 3.5) was 26.0 and the “Avg. Dead on Treated” value ([2]; Test 2, 60 mg/kg, week 7, control 3.0) was 21.8.
